According to publication PMC4747398, “Isothiocyanatostilbenes as novel c-Met inhibitors” (Oncotarget, 2015):
Read-outs that look alike come from different tables or passages of the source.

Tests used:
wild-type c-Met = wild-type c-Met (Homo sapiens, UniProt P08581); experiment: Z'-LYTE kinase phosphorylation inhibition assay, wild-type c-Met; type: biochemical
Protocol: (§1) Z'-LYTE™ Kinase Assay-Tyr6 Peptide kit (Invitrogen) was used to assess the ability of tested compounds to inhibit c-Met phosphorylation. Briefly, 20 μl/well reactions were set up in 96-well plates containing kinase buffer, 200 μM ATP, 4 μM Z-LYTE™ Tyr6 Peptide substrate, 2500 ng/ml c-Met kinase and DIDS or H2DIDS at various concentrations. After 1 hour incubation at room temperature, 10 μl development solution containing site-specific protease was added to each well. Incubation was continued for 1 hour. The reaction was then stopped, and the fluorescent signal ratio of 445 nm (coumarin)/520 nm (fluorescein) was determined on a plate reader (BioTek FLx800™), which reflects the peptide substrate cleavage status and/or the kinase inhibitory activity in the reaction. […] The IC50 value for each compound was calculated by nonlinear regression of log concentration versus % c-Met phosphorylation ± S.E.M., implemented in GraphPad Prism version 5.0 (GraphPad Software, CA, USA).

c-Met [1] = molecular target: T1, c-Met (Homo sapiens, UniProt P08581); experiment: Constitutive pMet in c-Met amplified H1993 cells, western blot; type: cell-based; design: endogenous in cells; settings: 5 μM compound, no HGF
T1 sequence (P08581 25-1390): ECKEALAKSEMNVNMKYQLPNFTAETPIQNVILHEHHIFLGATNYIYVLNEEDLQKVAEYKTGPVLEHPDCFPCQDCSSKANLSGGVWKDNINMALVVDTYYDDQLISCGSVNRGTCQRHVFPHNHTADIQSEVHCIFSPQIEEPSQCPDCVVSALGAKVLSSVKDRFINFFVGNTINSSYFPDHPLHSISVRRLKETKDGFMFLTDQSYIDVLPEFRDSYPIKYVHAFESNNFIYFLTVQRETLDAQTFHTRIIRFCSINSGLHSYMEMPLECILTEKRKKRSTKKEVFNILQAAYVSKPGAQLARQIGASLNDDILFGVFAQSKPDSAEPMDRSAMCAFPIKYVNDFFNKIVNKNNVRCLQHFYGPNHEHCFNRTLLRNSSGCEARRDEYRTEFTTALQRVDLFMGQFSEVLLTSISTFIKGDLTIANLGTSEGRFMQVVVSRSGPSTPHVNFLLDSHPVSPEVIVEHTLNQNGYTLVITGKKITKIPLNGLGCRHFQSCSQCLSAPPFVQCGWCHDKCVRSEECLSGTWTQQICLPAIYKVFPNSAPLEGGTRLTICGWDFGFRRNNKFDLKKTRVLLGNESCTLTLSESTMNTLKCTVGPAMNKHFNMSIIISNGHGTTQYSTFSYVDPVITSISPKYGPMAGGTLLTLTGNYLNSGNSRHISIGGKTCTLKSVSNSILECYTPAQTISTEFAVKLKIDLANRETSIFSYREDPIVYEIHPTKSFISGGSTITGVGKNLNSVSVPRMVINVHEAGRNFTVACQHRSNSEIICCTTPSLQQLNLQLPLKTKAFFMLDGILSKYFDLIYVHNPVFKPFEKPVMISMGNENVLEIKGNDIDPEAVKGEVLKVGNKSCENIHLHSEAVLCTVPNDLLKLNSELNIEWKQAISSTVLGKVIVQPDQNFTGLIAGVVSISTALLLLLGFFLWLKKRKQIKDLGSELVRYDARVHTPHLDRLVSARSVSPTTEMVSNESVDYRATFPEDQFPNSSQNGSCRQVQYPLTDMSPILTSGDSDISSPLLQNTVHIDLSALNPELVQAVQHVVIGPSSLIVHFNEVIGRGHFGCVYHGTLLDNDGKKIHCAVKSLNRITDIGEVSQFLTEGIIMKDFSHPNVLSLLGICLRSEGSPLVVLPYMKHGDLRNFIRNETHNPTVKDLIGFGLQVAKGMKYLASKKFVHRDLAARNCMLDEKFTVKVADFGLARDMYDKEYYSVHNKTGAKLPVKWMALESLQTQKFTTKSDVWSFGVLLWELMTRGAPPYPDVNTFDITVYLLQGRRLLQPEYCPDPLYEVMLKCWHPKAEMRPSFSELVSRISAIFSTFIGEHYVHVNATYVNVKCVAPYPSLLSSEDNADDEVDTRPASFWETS
Protocol: (§2) Cells were grown to ~70% confluency prior to treatment. Cells were serum-starved in serum-free media for 30 minutes prior to treatment in complete media or serum-free media for the indicated times. Cell lysates were collected in Laemmli (125 mM Tris, 4% SDS, 0.01% bromophenol blue, 30% sucrose) containing 0.5% β-mercaptoethanol and boiled ~8 minutes. Primary antibodies include: phospho-c-Met (Y1234/1235), phospho-Akt (S473), pEGFR (S845), pIGF-IRβ (Y1135/1136) (Cell Signaling Technology; Beverly, MA); α-actin (Sigma-Aldrich), c-Met (C-28) (Life Technologies). Secondary antibodies include: horseradish peroxidase-conjugated anti-rabbit and anti-mouse (GE Healthcare; Pittsburgh, PA). ECL 2 was used for chemiluminescent detection (Thermo Scientific; Rockford, IL). Densitometry was calculated using ImageJ (NIH).

c-Met [2] = molecular target: T1, c-Met; experiment: HGF-induced c-Met phosphorylation, western blot, DU145; type: cell-based; design: endogenous in cells; host or cells: DU145; settings: for effective concentration for c-Met inhibition in 10% FBS versus serum-free: DU145, 33 ng/ml HGF 20 minutes, 10% FBS RPMI; for reduction of c-Met activation: 8 μM compound, western blot densitometry
Protocol: as §2

DU145 spheroids = experiment: 3D spheroid proliferation in Matrigel; type: cell-based; settings: 5 μM compound, 33 ng/ml HGF, 72 hours
Protocol: Prior to seeding, cells were incubated with 2.5 ng/μl CellTracker Red (Life Technologies) in complete DMEM lacking Phenol Red for 5 minutes at room temperature then centrifuged at 1000 RPM for 5 minutes. Dyed cells were resuspended in complete DMEM lacking Phenol Red and containing 5% Matrigel before adding 5 μM, 10 μM, 20 μM, or 40 μM DIDS or H2DIDS +/− HGF. The mixture of cells, treatments, and Matrigel in complete media was seeded at 2000 cells/well in a 96 well plate. The plate was centrifuged at 1000 RPM for 3 minutes to collect the cells into the bottom of the plate. Spheroid growth was imaged for up to 80 hours and analyzed for average red object area using the IncuCyte™ ZOOM software. […] Images were captured by the IncuCyte™ ZOOM imaging system and representative 10X images are shown.

DU145 cells [3] = experiment: HGF-induced wound healing; type: cell-based; settings: DU145, 33 ng/ml HGF, 4 μM DIDS or 25 μM H2DIDS
Protocol: (§3) DU145 cells were grown to ~100% confluency prior to wounding with the IncuCyte™ WoundMaker™ (Essen Bioscience; Ann Arbor, MI) and washed once with complete media. For invasion, cells were covered with Matrigel diluted 1:5 in serum-free RPMI following wounding. Cells were treated with 4 μM DIDS or 25 μM H2DIDS with or without 33 ng/ml HGF or 100 ng/ml EGF for up to 4 days. Images were taken every 4 hours with the IncuCyte™ ZOOM imaging system (Essen Bioscience). Quadruplicate replicates were used in each experiment. Data are presented as percent wound density ± standard error of the mean (S.E.M.).

[4] = 2D proliferation (Cell Titer Blue); type: cell-based; settings: up to 72 hours; for effect on serum-free proliferation (2D): serum-free RPMI
Protocol: Cells were seeded to ~30% confluency prior to treatment with DIDS or H2DIDS at 0.5 μM, 2 μM, 8 μM, 32 μM, or 64 μM for 24 hours, 48 hours, or 72 hours in complete or serum-free RPMI. A T0 timepoint was also measured. For each timepoint, cells were exposed to Cell Titer Blue reagent (Promega) for 1 hour at 37°C 5% CO2. Experiments were performed with quadruplicate replicates. Fluorescence was measured using a BioTek Synergy 4 plate reader with Gen5 software.

DU145 cells [5] = experiment: EGF-induced wound healing; type: cell-based; settings: DU145, 100 ng/ml EGF, 4 μM DIDS or 25 μM H2DIDS
Protocol: as §3

EGFR = molecular target: T2, EGFR (Homo sapiens, UniProt P00533); experiment: EGF-induced EGFR activation, western blot, DU145; type: cell-based; settings: DU145, 100 ng/ml EGF 20 minutes, 4 μM DIDS or 25 μM H2DIDS
T2 construct: 100 ng/ml EGF b; endogenous in cells; host or cells: DU145
T2 sequence (P00533 25-1210): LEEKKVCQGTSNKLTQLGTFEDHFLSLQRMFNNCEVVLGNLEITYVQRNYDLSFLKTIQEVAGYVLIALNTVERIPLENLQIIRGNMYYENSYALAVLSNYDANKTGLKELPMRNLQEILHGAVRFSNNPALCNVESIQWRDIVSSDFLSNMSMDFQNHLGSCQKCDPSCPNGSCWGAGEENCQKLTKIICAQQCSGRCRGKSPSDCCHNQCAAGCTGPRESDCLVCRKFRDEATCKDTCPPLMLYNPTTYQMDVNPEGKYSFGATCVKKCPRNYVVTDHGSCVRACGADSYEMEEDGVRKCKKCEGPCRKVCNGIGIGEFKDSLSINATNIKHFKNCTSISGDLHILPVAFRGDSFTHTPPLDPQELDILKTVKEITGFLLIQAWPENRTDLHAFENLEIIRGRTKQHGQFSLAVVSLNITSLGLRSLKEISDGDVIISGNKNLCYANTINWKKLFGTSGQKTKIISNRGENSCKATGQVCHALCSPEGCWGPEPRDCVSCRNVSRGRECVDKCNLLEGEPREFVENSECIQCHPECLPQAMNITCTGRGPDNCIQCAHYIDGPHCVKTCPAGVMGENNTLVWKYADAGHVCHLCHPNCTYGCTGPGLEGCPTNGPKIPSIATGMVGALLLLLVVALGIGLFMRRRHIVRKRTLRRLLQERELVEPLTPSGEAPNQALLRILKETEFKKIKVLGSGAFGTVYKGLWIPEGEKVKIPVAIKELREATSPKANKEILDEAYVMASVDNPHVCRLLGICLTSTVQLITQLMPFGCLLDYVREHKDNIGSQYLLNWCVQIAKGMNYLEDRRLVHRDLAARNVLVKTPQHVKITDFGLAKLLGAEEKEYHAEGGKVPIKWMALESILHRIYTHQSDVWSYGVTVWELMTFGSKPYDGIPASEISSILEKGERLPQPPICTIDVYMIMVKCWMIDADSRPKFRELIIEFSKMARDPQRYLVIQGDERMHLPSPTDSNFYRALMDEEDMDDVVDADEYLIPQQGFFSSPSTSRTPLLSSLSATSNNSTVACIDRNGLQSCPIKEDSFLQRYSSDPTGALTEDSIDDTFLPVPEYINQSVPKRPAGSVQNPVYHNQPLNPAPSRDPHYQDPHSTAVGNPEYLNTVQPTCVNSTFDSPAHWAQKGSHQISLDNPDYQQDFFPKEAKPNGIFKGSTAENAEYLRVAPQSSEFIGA
Protocol: as §2

IGFR = molecular target: T3, IGFR (Homo sapiens, UniProt P08069); experiment: IGF-induced IGFR activation, western blot, DU145; type: cell-based; settings: DU145, 100 ng/ml IGF 20 minutes, 4 μM DIDS or 25 μM H2DIDS
T3 construct: endogenous in cells; host or cells: DU145
Protocol: as §2

DU145 cells [6] = experiment: HGF-induced cell scattering assay; type: cell-based; settings: DU145, 33 ng/ml HGF overnight, 4 μM DIDS or 25 μM H2DIDS
Protocol: DU145 cells were grown to ~50% confluency. Cells were treated overnight with 4 μM DIDS or 25 μM H2DIDS in the presence or absence of 33 ng/ml HGF or 100 ng/ml EGF. Cells were fixed with 4% paraformaldehyde and stained with Oregon Green 488 phalloidin (Invitrogen; Carlsbad, CA). Images were acquired on an Eclipse TE300 inverted microscope (Nikon; Tokyo, Japan) with NIS Elements version 4.13.04 software. Presented images were taken using a 10X objective.

DU145 cells [7] = experiment: HGF-induced invasion through Matrigel; type: cell-based; settings: DU145, 33 ng/ml HGF, Matrigel diluted 1:5
Protocol: as §3

c-Met M1250T (M1268T) = c-Met M1250T (M1268T) (Homo sapiens, UniProt P08581, M1250T); experiment: Z'-LYTE kinase phosphorylation inhibition assay, mutant c-Met; type: biochemical; settings: 200 μM ATP, cell-free
c-Met M1250T (M1268T), sequence (P08581 956-1390 M1250T limits assumed): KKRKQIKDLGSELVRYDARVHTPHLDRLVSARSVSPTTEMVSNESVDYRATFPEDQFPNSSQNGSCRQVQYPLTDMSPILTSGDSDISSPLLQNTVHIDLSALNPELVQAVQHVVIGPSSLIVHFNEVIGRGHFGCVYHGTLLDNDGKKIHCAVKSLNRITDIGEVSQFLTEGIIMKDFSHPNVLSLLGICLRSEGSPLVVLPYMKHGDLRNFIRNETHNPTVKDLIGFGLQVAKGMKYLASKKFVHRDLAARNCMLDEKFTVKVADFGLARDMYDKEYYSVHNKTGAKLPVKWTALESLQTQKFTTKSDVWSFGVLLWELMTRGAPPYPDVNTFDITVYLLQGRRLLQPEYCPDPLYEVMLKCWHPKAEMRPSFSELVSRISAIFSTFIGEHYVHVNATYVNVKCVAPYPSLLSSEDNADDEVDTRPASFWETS
Protocol: as §1

Akt = experiment: Downstream Akt phosphorylation, western blot, DU145; type: cell-based; settings: DU145, serum-free, HGF, ~8 μM compound
Protocol: as §2

[8] = system: MDA-MB-231/GFP human breast cancer cells; experiment: Orthotopic breast tumor xenograft; type: in vivo; settings: mice, 5 mg/kg then 10 mg/kg i.p.
Protocol: (§4) All animal experiments were approved by the Institutional Animal Care and Use Committee, University of Louisiana at Monroe, and were handled in strict accordance with good animal practice as defined by the NIH guidelines. Athymic nude mice (Foxn1^nu/Foxn1^+, 4–5 weeks, female) were purchased from Harlan (Indianapolis, IN). The mice had free access to standard pellet food and water. The animals were acclimated to animal house facility conditions at a temperature of 18–25°C, with a relative humidity of 55 to 65% and a 12 h light/dark cycle, for one week prior to the experiments. MDA-MB-231/GFP human breast cancer cells were cultured and resuspended in serum-free DMEM medium (20 μl). After anesthesia, cell suspensions (1 × 10^6 cells/20 μl) were inoculated subcutaneously into the second mammary gland fat pad just beneath the nipple of each animal to generate orthotopic breast tumors. […] The mice were monitored by measuring tumor volume, body weight, and clinical observation. Tumor volume (V) was calculated by V = L/2 × W^2, where L was the length and W was the width of tumors. The results are presented as average ± S.E.M. Differences among various treatment groups were determined by the analysis of variance (ANOVA) followed by Dunnett's test using PASW statistics version 18. […]

[9] = Tolerability in xenograft mice; type: in vivo
Protocol: as §4

[10] = system: protein translocation across the ER membrane; design: method as in PMID 8396042; settings: cited from earlier work
[11] = system: matrix metalloproteinase release; design: method as in PMID 22937143; settings: cited from earlier work
c-Met [12] = molecular target: T1, c-Met; experiment: Washout and reversal of c-Met phosphorylation in DU145, western blot; type: cell-based; design: endogenous in cells; host or cells: DU145; settings: wash
Protocol: as §2

[13] = DU145, serum-free, 33 ng/ml HGF 20 minutes

wild-type c-Met, sequence (P08581 25-1390): as the sequence (P08581 25-1390) above

| Structure (SMILES) | effect on pMet levels in H1993 cells (c-Met [1]) | decrease of HGF-induced DU145 spheroid growth (DU145 spheroids) | effect on HGF-induced wound healing (DU145 cells [3]) | effect on proliferation in complete media (2D) [4] | effect on serum-free proliferation (2D) [4] | effect on EGF-mediated wound healing (DU145 cells [5]) | effect on EGFR activation (EGFR) | effective concentration for c-Met inhibition in 10% FBS versus serum-free (c-Met [2]) | reduction of c-Met activation (c-Met [2]; [13]) | effect on IGFR activation (IGFR) | effect on HGF-induced cell scattering (DU145 cells [6]) | effect on HGF-induced invasion (DU145 cells [7]) | other results |
| --- | --- | --- | --- | --- | --- | --- | --- | --- | --- | --- | --- | --- | --- |
| Cc1[nH]c(/C=C2\C(=O)Nc3ccc(S(=O)(=O)N(C)c4cccc(Cl)c4)cc32)c(C)c1C(=O)N1CCN(C)CC1 [SU11274] | ameliorated pMet levels |  |  |  |  |  |  |  |  |  |  |  | reduction of c-Met phosphorylation (wild-type c-Met; 500 nM compound, cell-free kinase assay): ~ 70% |
| O=[N+]([O-])c1ccc(C=Cc2ccc([N+](=O)[O-])cc2S(=O)(=O)O)c(S(=O)(=O)O)c1 [DNDS, 4,4′-dinitrostilbene-2,2′-disulfonic acid] |  |  |  |  |  |  |  |  |  |  |  |  | inhibition at 2000 µM (c-Met [2]; DU-145, read-out: inhibition of c-Met): ~90% |
| O=S(=O)(O)c1cc(N=C=S)ccc1CCc1ccc(N=C=S)cc1S(=O)(=O)O [H2DIDS, 4,4′-Diisothiocyanatodihydrostilbene-2,2′-disulfonic acid] | much less significant effects | ~ 60% | significantly reduced | minimal effects | minimal effects | minimal effects | do not significantly reduce | slightly higher effective concentrations | ~ 90% | do not significantly reduce | able to reduce HGF-induced | reduce HGF-induced wound healing and invasion in a dose-dependent manner | IC50 (wild-type c-Met): 3600 nM |
| O=S(=O)(O)c1cc(N=C=S)ccc1C=Cc1ccc(N=C=S)cc1S(=O)(=O)O [DIDS, 4,4′-Diisothiocyanatostilbene-2,2′-disulfonic acid] | much less significant effects | ~ 60% | significantly reduced | minimal effects | minimal effects | minimal effects | do not significantly reduce | slightly higher effective concentrations | ~ 90% | do not significantly reduce | able to reduce HGF-induced | reduce HGF-induced wound healing and invasion in a dose-dependent manner | IC50 (c-Met M1250T (M1268T)): 370 nM; reduction of downstream Akt (Akt): ~ 90%; tumor size (caliper) ([8]; 3X/week): began to reduce tumor size towards the end of the experiment; tumor weight at necropsy ([8]; versus DMSO control): Differences in overall tumor weight were evident; signs of toxicity ([9]; 5 mg/kg intraperitoneally, ~2 weeks): No obvious signs of toxicity; body weight versus DMSO control ([9]; 5 mg/kg then 10 mg/kg i.p., 3X/week): no change in body weight; concentration inhibiting protein translocation across the ER membrane [10]: ≥ 400 µM; IC50 (wild-type c-Met; 200 μM ATP, cell-free, read-out: IC50, wild-type c-Met): 300 nM; concentration inhibiting matrix metalloproteinase release [11]: ≥ 400 µM; effect on pMet when given post HGF treatment (c-Met [12]; DU145, 33 ng/ml HGF 20 minutes, 4 μM for 20 or 60 minutes): reduced pMet levels; reversibility of c-Met inhibition after washout (c-Met [12]; DU145, 4 μM 20 minutes, then 33 ng/ml HGF 20 minutes): does not irreversibly bind c-Met |
| CC(=O)Nc1ccc(C=Cc2ccc(N=C=S)cc2S(=O)(=O)O)c(S(=O)(=O)O)c1 [SITS, 4-acetamido-4′-isothiocyanatostilbene-2,2′-disulfonic acid] |  |  |  |  |  |  |  |  |  |  |  |  | inhibition at 250 µM (c-Met [2]; DU-145, DU145, serum-free, 33 ng/ml HGF 20 minutes, 250 μM compound): ~90% |
